Test results as given in US7300937B2, “Derivatives of cyano-aryl (or cyanoheteroaryl)-carbonyl-piperazinyl-pyrimidines, their preparation and application as medication” (Laboratorios del Dr. Esteve, S.A., priority 2001, dated 2007).
Where a name gives a salt, the structure may show the parent alone. Marks after values point to notes of the source that are not given here.

Experiments:
mouse = assay: Anaesthetic activity in mice (IV, loss of three reflexes); conditions: for time of anaesthesia: average time
Experimental: The anaesthetic activity was determined after intravenous (IV) administration of the product under study in three different doses (15, 10 and 5 mg/kg) in the caudal vein of the mouse. The percentage of anaesthetised animals was recorded and the average time of anaesthesia calculated. Mice were considered to be anaesthetised when losing the three reflexes: positional reflex, response to painful stimulus reflex (prick in the tail) and palpebral reflex.

[1] = system: body tone and abdominal tone of the rats; assay: Myorelaxant activity in the IRWIN test in rats; type: in vivo, rat; conditions: 80 mg/kg ip
Experimental: The activity as muscular relaxant of the products of the invention was studied, by evaluating the effect on body tone and abdominal tone of the rats, following the method described by S. IRWIN (Gordon Res. Conf. on Medicinal Chem.,1959. p.133). The rats received the products under study in a dose of 80 mg/kg ip, and at several times after administration (½, 1, 2, 3, 4 and 5 hours) the body and abdominal tone were evaluated, comparing muscle tension to that of the control animals.

dog = assay: Anaesthetic activity in dogs (IV infusion); conditions: IV infusion 5 mg/ml/minute until fully anaesthetised
Experimental: A saline solution of the product in study was perfused by means of a perfusion pump in a concentration and rate of 5 mg/ml/minute, through a cannula inserted in a vein of the front leg.

rat = assay: Anaesthetic activity in rats (IV infusion to maintain full anaesthesia for 1 hour); conditions: IV infusion required to maintain full anaesthesia for 1 hour
Experimental: In this test, through the cannulated caudal vein of a rat was perfused a solution of the products under study with a concentration of 10 mg/kg. The rate of perfusion was varied to keep the rats anaesthetised for 1 hour.

[2] = system: convulsions induced by IV injection of pentamethylentetrazol (cardiazol); assay: Anticonvulsive activity in mice (convulsions due to cardiazol); type: in vivo, mouse; conditions: for ED50: Mus musculus; for % Activity: mice, cardiazol 45 mg/kg IV
mice = assay: Sedative activity in mice (behaviour observation); type: in vivo, mouse; parameters: unit not given here; conditions: 80 mg/kg i.p.
Experimental: The sedative activity was studied by observing the animals' behaviour after intraperitoneal (i.p.) administration of a dose of 80 mg/kg. This observation was conducted at different times, allowing to know the sedative effect and its duration.

SMILES	% anaesthetised (mouse; 5 mg/kg iv)	% anaesthetised (mouse; 10 mg/kg iv)	time of anaesthesia (mouse; 10 mg/kg iv)	% anaesthetised (mouse; 15 mg/kg iv)	time of anaesthesia (mouse; 15 mg/kg iv)	% muscular relaxation ([1]; after 1 h.)	% muscular relaxation ([1]; after 2 h.)	% muscular relaxation ([1]; after 3 h.)	% muscular relaxation ([1]; after 4 h.)	% muscular relaxation ([1]; after 5 h.)	% muscular relaxation ([1]; after ½ h.)	Anaesthetic dose (dog)	Total dose (rat)	ED50 [2]	% Activity ([2]; 20 mg/kg i.p.)	% Activity ([2]; 40 mg/kg i.p.)	% Activity ([2]; 80 mg/kg i.p.)	Sedative activity (mice; 30′)	Sedative activity (mice; 1 h)	Sedative activity (mice; 2 h)	further results
CCOc1ccnc(N2CCN(C(=O)c3ccccc3C#N)CC2)n1 (as salt: HCl) [Example 4, 2-[4-(2-cyanobenzoyl)-1-piperazinyl]-4-ethoxypyrimidine hydrochloride]																					melting point: 147 to 151 °C
CCOc1ccnc(N2CCN(C(=O)c3ccccc3C#N)CC2)n1 [Example 4, 2-[4-(2-cyanobenzoyl)-1-piperazinyl]-4-ethoxypyrimidine hydrochloride]	0%	100%	2.6 ′	100%	5.8 ′	100%	100%	70%	33%	0%	100%	10.1 mg/kg	56.8 mg/kg	25.1 mg/kg	40%	69%	87%	90	75	75	Sedative activity (mice; 3 h): 35; Sedative activity (mice; 4 h): 0; Sedative activity (mice; 5 h): 0; Sedative activity (mice; 24 h): 0
CC(C)c1cccc(C(C)C)c1O [Propofol, reference compound]	0%	80%	1 ′	80%	1.3 ′	100%	70%	0%	0%	0%	100%	21.6* mg/kg	67 mg/kg	32.5 mg/kg	33%	46%	100%				
Cc1ccc(-c2nc3ccc(C)cn3c2CC(=O)N(C)C)cc1 [Zolpidem, reference compound]																		100	90	30	Sedative activity (mice; 3 h): 0; Sedative activity (mice; 4 h): 0; Sedative activity (mice; 5 h): 0; Sedative activity (mice; 24 h): 0
